# Test results as given in ChEMBL document CHEMBL1129231, “Bone targeted drugs 2. synthesis of estrogens with hydroxyapatite affinity” (Bioorg Med Chem Lett, 1996).
# Assays:
# Ishikawa = assay: Agonist activity in Ishikawa human endometrial cells; type: functional, cell-based
# Estrogen receptor = Estrogen receptor (Rattus norvegicus, UniProt P06211+Q62986); assay: Binding affinity for rat estrogen receptor; type: protein assay
# [1] = target: Estrogen receptor (Rattus norvegicus) (UniProt P06211+Q62986); assay: Relative efficacy for estrogen receptor compared to estradiol; type: protein assay
EC50 (Ishikawa) [nM],IC50 (Estrogen receptor) [nM],Emax [1] [%],Compound
20000,100000,–,CC[C@@H](c1ccc(O)cc1)[C@H](Cn1cc(C(=O)O)c(=O)[nH]1)c1ccc(O)cc1
1100,5000,–,CC[C@@H](c1ccc(O)cc1)[C@H](CCCCn1cc(C(=O)O)c(=O)[nH]1)c1ccc(O)cc1
0.1,2,80,CC[C@H](c1ccc(O)cc1)[C@@H](CC)c1ccc(O)cc1 [HEXESTROL]

Compound,EC50 (Ishikawa) [nM],IC50 (Estrogen receptor) [nM],Emax [1] [%]
CC[C@@H](c1ccc(O)cc1)[C@H](CCCCn1cc(C(=O)O)cn1)c1ccc(O)cc1,1600,–,–
